Measured values published in the supplement of paper PMC4862054.

Test system: MDA-MB-468
Assay: normalised viability (% of control), CellTiter-Blue; higher = more viable cells (about 100 = DMSO control)
Conditions: 0.99 nM; incubation time: 72 h
Method in brief: (§1)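 Breast cancer cell lines in 20 µl suspension were seeded onto 384-well plates pre-loaded with compound dissolved in 5 µl medium, then incubated 72 h. CellTiter-Blue reagent (2.5 µl) was added for 2 h at 37 °C and fluorescence read at 560/590 nm. Each plate was normalised to vehicle (100) and a positive kill control (0), with Z'-factor quality control. The value is normalised viability at one listed concentration of the series.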

Structure (SMILES) | normalised viability [%]
C[C@]12CC[C@@H]3c4ccc(OC(=O)N(CCCl)CCCl)cc4CC[C@H]3[C@@H]1CC[C@@H]2O [Estramustine] | 102

Same assay, conditions: 10 nM; incubation time: 72 h

Structure (SMILES) | normalised viability [%]
CC(=O)c1c(C)c2cnc(Nc3ccc(N4CCNCC4)cn3)nc2n(C2CCCC2)c1=O | 115
Oc1ncnc2[nH]ncc12 [Allopurinol] | 102
O=C1CN2Cc3c(ccc(Cl)c3Cl)N=C2N1 [Anagrelide] | 106
CC1=C2C[C@H]3[C@@H](CC=C4C[C@@H](O)CC[C@@]43C)[C@@H]2CC[C@]12O[C@@H]1C[C@H](C)CN[C@H]1[C@H]2C [Cyclopamine] | 100
C[C@]1(O)C[C@@H](c2nc(-c3ccc4ccc(-c5ccccc5)nc4c3)c3c(N)nccn32)C1 [OSI-906] | 104
COc1cc(F)c(F)c(Nc2ccc(I)cc2F)c1NS(=O)(=O)C1(C[C@H](O)CO)CC1 [RDEA119] | 94.2

Same assay, conditions: 40 nM; incubation time: 72 h

Structure (SMILES) | normalised viability [%]
CC[C@@H]1C(=O)OC[C@@H]1Cc1cncn1C [Pilocarpine] | 95.2

Same assay, conditions: 99 nM; incubation time: 72 h

Structure (SMILES) | normalised viability [%]
C[C@]12CC[C@@H]3c4ccc(OC(=O)N(CCCl)CCCl)cc4CC[C@H]3[C@@H]1CC[C@@H]2O [Estramustine] | 103

Same assay, conditions: 990 nM; incubation time: 72 h

Structure (SMILES) | normalised viability [%]
C[C@]12CC[C@@H]3c4ccc(OC(=O)N(CCCl)CCCl)cc4CC[C@H]3[C@@H]1CC[C@@H]2O [Estramustine] | 117

Same assay, conditions: 1000 nM; incubation time: 72 h

Structure (SMILES) | normalised viability [%]
CC(=O)c1c(C)c2cnc(Nc3ccc(N4CCNCC4)cn3)nc2n(C2CCCC2)c1=O | 99.8
Oc1ncnc2[nH]ncc12 [Allopurinol] | 99.7
O=C1CN2Cc3c(ccc(Cl)c3Cl)N=C2N1 [Anagrelide] | 103
CC1=C2C[C@H]3[C@@H](CC=C4C[C@@H](O)CC[C@@]43C)[C@@H]2CC[C@]12O[C@@H]1C[C@H](C)CN[C@H]1[C@H]2C [Cyclopamine] | 102
C[C@]1(O)C[C@@H](c2nc(-c3ccc4ccc(-c5ccccc5)nc4c3)c3c(N)nccn32)C1 [OSI-906] | 86.5
COc1cc(F)c(F)c(Nc2ccc(I)cc2F)c1NS(=O)(=O)C1(C[C@H](O)CO)CC1 [RDEA119] | 78.3

Same assay, conditions: 4000 nM; incubation time: 72 h

Structure (SMILES) | normalised viability [%]
CC[C@@H]1C(=O)OC[C@@H]1Cc1cncn1C [Pilocarpine] | 99

Same assay, conditions: 10000 nM; incubation time: 72 h

Structure (SMILES) | normalised viability [%]
CC(=O)c1c(C)c2cnc(Nc3ccc(N4CCNCC4)cn3)nc2n(C2CCCC2)c1=O | 85.3
Oc1ncnc2[nH]ncc12 [Allopurinol] | 103
O=C1CN2Cc3c(ccc(Cl)c3Cl)N=C2N1 [Anagrelide] | 111
CC1=C2C[C@H]3[C@@H](CC=C4C[C@@H](O)CC[C@@]43C)[C@@H]2CC[C@]12O[C@@H]1C[C@H](C)CN[C@H]1[C@H]2C [Cyclopamine] | 90.9
C[C@]1(O)C[C@@H](c2nc(-c3ccc4ccc(-c5ccccc5)nc4c3)c3c(N)nccn32)C1 [OSI-906] | 84.6
COc1cc(F)c(F)c(Nc2ccc(I)cc2F)c1NS(=O)(=O)C1(C[C@H](O)CO)CC1 [RDEA119] | 51

Same assay, conditions: 40000 nM; incubation time: 72 h

Structure (SMILES) | normalised viability [%]
CC[C@@H]1C(=O)OC[C@@H]1Cc1cncn1C [Pilocarpine] | 109

Test system: MFM-223
Assay: as above
Conditions: 0.99 nM; incubation time: 72 h
Method in brief: as §1

Structure (SMILES) | normalised viability [%]
C[C@]12CC[C@@H]3c4ccc(OC(=O)N(CCCl)CCCl)cc4CC[C@H]3[C@@H]1CC[C@@H]2O [Estramustine] | 101

Same assay, conditions: 10 nM; incubation time: 72 h

Structure (SMILES) | normalised viability [%]
CC(=O)c1c(C)c2cnc(Nc3ccc(N4CCNCC4)cn3)nc2n(C2CCCC2)c1=O | 77.5
Oc1ncnc2[nH]ncc12 [Allopurinol] | 95.3
O=C1CN2Cc3c(ccc(Cl)c3Cl)N=C2N1 [Anagrelide] | 100
CC1=C2C[C@H]3[C@@H](CC=C4C[C@@H](O)CC[C@@]43C)[C@@H]2CC[C@]12O[C@@H]1C[C@H](C)CN[C@H]1[C@H]2C [Cyclopamine] | 96
C[C@]1(O)C[C@@H](c2nc(-c3ccc4ccc(-c5ccccc5)nc4c3)c3c(N)nccn32)C1 [OSI-906] | 98.3
COc1cc(F)c(F)c(Nc2ccc(I)cc2F)c1NS(=O)(=O)C1(C[C@H](O)CO)CC1 [RDEA119] | 94.8

Same assay, conditions: 40 nM; incubation time: 72 h

Structure (SMILES) | normalised viability [%]
CC[C@@H]1C(=O)OC[C@@H]1Cc1cncn1C [Pilocarpine] | 96.4

Same assay, conditions: 99 nM; incubation time: 72 h

Structure (SMILES) | normalised viability [%]
C[C@]12CC[C@@H]3c4ccc(OC(=O)N(CCCl)CCCl)cc4CC[C@H]3[C@@H]1CC[C@@H]2O [Estramustine] | 98.3

Same assay, conditions: 990 nM; incubation time: 72 h

Structure (SMILES) | normalised viability [%]
C[C@]12CC[C@@H]3c4ccc(OC(=O)N(CCCl)CCCl)cc4CC[C@H]3[C@@H]1CC[C@@H]2O [Estramustine] | 103

Same assay, conditions: 1000 nM; incubation time: 72 h

Structure (SMILES) | normalised viability [%]
CC(=O)c1c(C)c2cnc(Nc3ccc(N4CCNCC4)cn3)nc2n(C2CCCC2)c1=O | 79.3
Oc1ncnc2[nH]ncc12 [Allopurinol] | 110
O=C1CN2Cc3c(ccc(Cl)c3Cl)N=C2N1 [Anagrelide] | 99
CC1=C2C[C@H]3[C@@H](CC=C4C[C@@H](O)CC[C@@]43C)[C@@H]2CC[C@]12O[C@@H]1C[C@H](C)CN[C@H]1[C@H]2C [Cyclopamine] | 90.2
C[C@]1(O)C[C@@H](c2nc(-c3ccc4ccc(-c5ccccc5)nc4c3)c3c(N)nccn32)C1 [OSI-906] | 91.6
COc1cc(F)c(F)c(Nc2ccc(I)cc2F)c1NS(=O)(=O)C1(C[C@H](O)CO)CC1 [RDEA119] | 75.7

Same assay, conditions: 4000 nM; incubation time: 72 h

Structure (SMILES) | normalised viability [%]
CC[C@@H]1C(=O)OC[C@@H]1Cc1cncn1C [Pilocarpine] | 90.7

Same assay, conditions: 10000 nM; incubation time: 72 h

Structure (SMILES) | normalised viability [%]
CC(=O)c1c(C)c2cnc(Nc3ccc(N4CCNCC4)cn3)nc2n(C2CCCC2)c1=O | 74
Oc1ncnc2[nH]ncc12 [Allopurinol] | 105
O=C1CN2Cc3c(ccc(Cl)c3Cl)N=C2N1 [Anagrelide] | 104
CC1=C2C[C@H]3[C@@H](CC=C4C[C@@H](O)CC[C@@]43C)[C@@H]2CC[C@]12O[C@@H]1C[C@H](C)CN[C@H]1[C@H]2C [Cyclopamine] | 103
C[C@]1(O)C[C@@H](c2nc(-c3ccc4ccc(-c5ccccc5)nc4c3)c3c(N)nccn32)C1 [OSI-906] | 74.5
